Here are results for 23 compounds from patent US8614327B2 (Vertex Pharmaceuticals Incorporated, priority 2004, dated 2013).

SMILES strings stand for the structures. Some results are limits rather than exact numbers.

The target in the assay is T1, ΔF508-CFTR (Homo sapiens, UniProt P13569, DEL508-508).
T1 construct: expressed in transfected cells
Kind of assay: Membrane potential optical (FRET/VIPR) assay, identification of potentiator compounds. The assay is classed as cell-based. As to conditions: Table 3, assay not given; for % Activity: relative efficacy. Summed up: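 NIH3T3 mouse fibroblasts stably expressing ΔF508-CFTR, temperature-corrected 24 h at 27° C., read on VIPR by FRET between CC2-DMPE and DiSBAC2(3). Potentiators identified in a double-addition format, first adding chloride-free (gluconate) medium with or without compound.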

For orientation: EC50 means the midpoint of the concentration-response curve.

T1 sequence (P13569 with tags, fused parts or gaps DEL508-508): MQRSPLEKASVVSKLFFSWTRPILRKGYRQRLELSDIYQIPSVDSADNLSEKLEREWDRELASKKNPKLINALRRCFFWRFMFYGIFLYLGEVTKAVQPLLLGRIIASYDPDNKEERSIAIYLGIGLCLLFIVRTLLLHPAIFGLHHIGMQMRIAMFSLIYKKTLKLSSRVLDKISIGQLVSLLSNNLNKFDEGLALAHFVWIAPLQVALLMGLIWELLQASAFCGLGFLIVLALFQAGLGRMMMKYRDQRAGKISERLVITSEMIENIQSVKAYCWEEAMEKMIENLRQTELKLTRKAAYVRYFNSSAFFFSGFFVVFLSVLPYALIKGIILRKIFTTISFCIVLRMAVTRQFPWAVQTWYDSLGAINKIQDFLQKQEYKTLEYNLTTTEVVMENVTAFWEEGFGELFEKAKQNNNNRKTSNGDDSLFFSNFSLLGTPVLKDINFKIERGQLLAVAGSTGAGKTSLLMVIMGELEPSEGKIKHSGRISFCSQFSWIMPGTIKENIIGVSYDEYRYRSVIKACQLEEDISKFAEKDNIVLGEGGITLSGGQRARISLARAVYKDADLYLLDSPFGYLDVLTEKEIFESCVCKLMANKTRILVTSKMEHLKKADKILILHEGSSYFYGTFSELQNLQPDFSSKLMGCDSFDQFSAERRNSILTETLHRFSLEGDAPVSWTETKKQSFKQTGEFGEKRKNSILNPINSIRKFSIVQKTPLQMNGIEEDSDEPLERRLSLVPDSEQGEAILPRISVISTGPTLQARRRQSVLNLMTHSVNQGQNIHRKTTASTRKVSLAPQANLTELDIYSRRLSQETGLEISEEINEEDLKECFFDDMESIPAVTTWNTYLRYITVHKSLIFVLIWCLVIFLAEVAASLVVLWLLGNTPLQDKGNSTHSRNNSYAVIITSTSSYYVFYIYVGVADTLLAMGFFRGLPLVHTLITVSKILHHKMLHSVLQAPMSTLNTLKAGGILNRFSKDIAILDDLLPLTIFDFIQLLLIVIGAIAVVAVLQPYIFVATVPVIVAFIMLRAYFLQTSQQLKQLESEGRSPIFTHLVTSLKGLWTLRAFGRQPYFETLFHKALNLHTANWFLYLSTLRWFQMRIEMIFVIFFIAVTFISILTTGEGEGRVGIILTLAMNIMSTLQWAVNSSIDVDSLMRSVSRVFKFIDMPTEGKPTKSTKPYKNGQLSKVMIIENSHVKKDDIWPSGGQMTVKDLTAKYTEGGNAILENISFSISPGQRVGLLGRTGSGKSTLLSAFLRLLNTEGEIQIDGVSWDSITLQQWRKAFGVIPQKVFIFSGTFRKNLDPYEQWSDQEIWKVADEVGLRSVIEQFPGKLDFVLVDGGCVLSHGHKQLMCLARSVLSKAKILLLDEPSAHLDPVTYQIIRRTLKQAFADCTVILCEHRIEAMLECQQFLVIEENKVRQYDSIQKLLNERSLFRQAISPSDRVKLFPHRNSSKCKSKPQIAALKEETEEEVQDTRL

For the compound `CC(C)c1ccc(NC(=O)c2c[nH]c3ccc(Cl)cc3c2=O)c(C(F)(F)F)c1` [Compound 657, 6-chloro-N-[4-isopropyl-2-(trifluoromethyl)phenyl]-4-oxo-1H-quinoline-3-carboxamide], the EC50 is less than 10 µM and the “% Activity” value was “++ (between 25% to 100%)”.

`CCc1cc2cc[nH]c2cc1NC(=O)c1c[nH]c2ccccc2c1=O` [Compound 351, N-(5-ethyl-1H-indol-6-yl)-4-oxo-1H-quinoline-3-carboxamide]: the EC50 was less than 10 µM and the “% Activity” value is recorded as “++ (between 25% to 100%)”. Turning to `CC(C)(C)c1cc(C(C)(C)C)c(NC(=O)c2c[nH]c3cccc(C(F)(F)F)c3c2=O)cc1O` [Compound 520, N-(5-hydroxy-2,4-ditert-butyl-phenyl)-4-oxo-5-(trifluoromethyl)-1H-quinoline-3-carboxamide], the EC50 was less than 10 µM and the “% Activity” value is “++ (between 25% to 100%)”. Turning to `CC(C)OC(=O)c1cccc(-c2ccccc2NC(=O)c2c[nH]c3ccccc3c2=O)c1` [Compound 71, 3-[2-[(4-oxo-1H-quinolin-3-yl)carbonylamino]phenyl]benzoic acid isopropyl ester], the EC50 was less than 10 µM and the “% Activity” value is listed as “++ (between 25% to 100%)”. On to `CC(C)(C)c1cc2cc[nH]c2cc1NC(=O)c1c[nH]c2cc(C#N)ccc2c1=O` [Compound 558, 7-cyano-4-oxo-N-(5-tert-butyl-1H-indol-6-yl)-1H-quinoline-3-carboxamide], for which the EC50 was less than 10 µM and the “% Activity” value is given as “++ (between 25% to 100%)”. Turning to `CC(C)(C)c1cc(C(C)(C)C)c(NC(=O)c2c[nH]c3ccccc3c2=O)cc1O` [Compound 433, N-(5-hydroxy-2,4-ditert-butyl-phenyl)-4-oxo-1H-quinoline-3-carboxamide], the EC50 is less than 10 µM. For `Cc1cccc2[nH]cc(C(=O)Nc3ccc(N4CCC(C)(C)C4)cc3C(F)(F)F)c(=O)c12` [Compound 578, N-[4-(3,3-dimethylpyrrolidin-1-yl)-2-(trifluoromethyl)phenyl]-5-methyl-4-oxo-1H-quinoline-3-carboxamide], the EC50 is less than 10 µM and the “% Activity” value is reported as “++ (between 25% to 100%)”. As for `O=C(Nc1cc(O)cc(C(F)(F)F)c1)c1c[nH]c2cccc(O)c2c1=O` [Compound 599, 5-hydroxy-N-[3-hydroxy-5-(trifluoromethyl)phenyl]-4-oxo-1H-quinoline-3-carboxamide], the EC50 is less than 10 µM and the “% Activity” value was “++ (between 25% to 100%)”.

On to `CC(C)(C)OC(=O)N1CCc2ccc(NC(=O)c3c[nH]c4ccccc4c3=O)cc2C1` [Compound 107, 7-[(4-oxo-1H-quinolin-3-yl)carbonylamino]-1,2,3,4-tetrahydroisoquinoline-2-carboxylic acid tert-butyl ester], for which the EC50 fell in the range of 10 to 25 µM and the “% Activity” value was “++ (between 25% to 100%)”.

For the compound `O=C(Nc1ccccc1-c1ccc(CO)cc1)c1c[nH]c2ccccc2c1=O` [Compound 302, N-[2-[4-(hydroxymethyl)phenyl]phenyl]-4-oxo-1H-quinoline-3-carboxamide], the EC50 lay within 10 to 25 µM and the “% Activity” value is listed as “++ (between 25% to 100%)”. The like results for `Cc1ccc(NC(=O)c2c[nH]c3ccccc3c2=O)c(C)c1` [Compound 281, N-(2,4-dimethylphenyl)-4-oxo-1H-quinoline-3-carboxamide] were, in that order, less than 10 µM and “++ (between 25% to 100%)”. The like results for `Cc1cc2cc(NC(=O)c3c[nH]c4ccccc4c3=O)ccc2[nH]1` [Compound 230, N-(2-methyl-1H-indol-5-yl)-4-oxo-1H-quinoline-3-carboxamide] were, in that order, 10 to 25 µM and “++ (between 25% to 100%)”.

`CCOc1ccc2ncc(C(=O)Nc3ccc4cc[nH]c4c3)c(O)c2c1` [Compound 112, 6-ethoxy-4-hydroxy-N-(1H-indol-6-yl)quinoline-3-carboxamide]: the EC50 is less than 10 µM and the “% Activity” value is reported as “++ (between 25% to 100%)”. Consider `CC(C)(C)c1cc(C(C)(C)C)c(NC(=O)c2c[nH]c3cccc(N)c3c2=O)cc1O` [Compound 585, 5-amino-N-(5-hydroxy-2,4-ditert-butyl-phenyl)-4-oxo-1H-quinoline-3-carboxamide], for which the EC50 is less than 10 µM and the “% Activity” value was “+++ (>100%)”. For `O=C(Nc1ccc(N2CCC2)cc1C(F)(F)F)c1c[nH]c2ccccc2c1=O` [Compound 689, N-[4-azetidin-1-yl-2-(trifluoromethyl)phenyl]-4-oxo-1H-quinoline-3-carboxamide], the EC50 was less than 10 µM and the “% Activity” value is on record as “++ (between 25% to 100%)”. `CCc1ccc(Cl)c(CC)c1NC(=O)c1c[nH]c2ccccc2c1=O` [Compound 91, N-(3-chloro-2,6-diethyl-phenyl)-4-oxo-1H-quinoline-3-carboxamide]: the 50% effective concentration (EC50) is less than 10 µM and the “% Activity” value was “++ (between 25% to 100%)”. On to `CCOc1cccc(-c2ccccc2NC(=O)c2c[nH]c3ccccc3c2=O)c1` [Compound 306, N-[2-(3-ethoxyphenyl)phenyl]-4-oxo-1H-quinoline-3-carboxamide], for which the EC50 was less than 10 µM and the “% Activity” value was “+++ (>100%)”. In the same order, the values of `O=C(Nc1ccccc1-c1ccc(Oc2ccccc2)cc1)c1c[nH]c2ccccc2c1=O` [Compound 410, 4-oxo-N-[2-(4-phenoxyphenyl)phenyl]-1H-quinoline-3-carboxamide] are less than 10 µM and “+++ (>100%)”. In the same order, the values of `CN(C(=O)c1c[nH]c2ccccc2c1=O)c1cc(O)c(C(C)(C)C)cc1C(C)(C)C` [Compound 337, N-(5-hydroxy-2,4-ditert-butyl-phenyl)-N-methyl-4-oxo-1H-quinoline-3-carboxamide] are less than 10 µM and “++ (between 25% to 100%)”.

As to `O=C(Nc1cc(Cl)cc(NS(=O)(=O)CCN2CCOCC2)c1)c1c[nH]c2ccccc2c1=O` [Compound 46, N-[3-chloro-5-(2-morpholinoethylsulfonylamino)phenyl]-4-oxo-1H-quinoline-3-carboxamide], the EC50 fell in the range of 10 to 25 µM and the “% Activity” value is “++ (between 25% to 100%)”. In the same order, the values of `CC(C)(C)c1cc(C(F)(F)F)c(NC(=O)c2c[nH]c3ccc(F)cc3c2=O)cc1O` [Compound 509, 6-fluoro-N-[5-hydroxy-4-tert-butyl-2-(trifluoromethyl)phenyl]-4-oxo-1H-quinoline-3-carboxamide] are less than 10 µM and “++ (between 25% to 100%)”.

With `O=C(Nc1ccccc1Oc1ncc(C(F)(F)F)cc1Cl)c1c[nH]c2ccccc2c1=O` [Compound 42, N-[2-[[3-chloro-5-(trifluoromethyl)-2-pyridyl]oxy]phenyl]-4-oxo-1H-quinoline-3-carboxamide], the concentration for a half-maximal effect (EC50) was less than 10 µM and the “% Activity” value is given as “++ (between 25% to 100%)”. In the same order, the values of `O=C(Nc1ccc(OC(F)F)cc1)c1c[nH]c2ccccc2c1=O` [Compound 360, N-[4-(difluoromethoxy)phenyl]-4-oxo-1H-quinoline-3-carboxamide] are less than 10 µM and “++ (between 25% to 100%)”.
